Reference: US11541029B2, “High penetration compositions and their applications” (Techfields Pharma Co., Ltd., priority 2008, dated 2023)

Columns and labels:
SLAC/MRL/LPR mice = experiment: Lupus in MRL/LPR mice treated from 8 weeks old, 30 mg/kg (10% aq.) on back skin twice per day; assay type: in vivo
Protocol: . Progression of lupus was monitored once a week by measurement of hematuria, body weight and survival rate. The experiments were carried out in two groups of mice. One group of mice were 8 weeks old and had not shown SLE characteristics (Table 26a). The other group of mice were 16 weeks old, and had shown SLE characteristics (Table 26b).

[1] = tested on: rats given sterilized E. coli suspension as a pyrogen; experiment: Antipyretic activity of aspirin and its HPC (Study B); assay type: in vivo; conditions: for body temperature: in °C (unit assumed)
Protocol: […] Group A was the control group. The body temperature of rats was taken at 90 min. intervals before and after the administration of the test compounds.

CCN(CC)CCOC(=O)c1ccccc1OC(C)=O.Cl [P-1, diethylaminoethyl acetylsalicylate.HCl salt]
Body Weight (SLAC/MRL/LPR mice; week 8): 30.5 ± 2.6 g
Hematuria (0-4) (SLAC/MRL/LPR mice; week 8): 0
Survival Rate (SLAC/MRL/LPR mice; week 8): 10/10
Body Weight (SLAC/MRL/LPR mice; week 9): 33.5 ± 2.1 g
Hematuria (0-4) (SLAC/MRL/LPR mice; week 9): 0
Survival Rate (SLAC/MRL/LPR mice; week 9): 10/10
Body Weight (SLAC/MRL/LPR mice; week 10): 36.2 ± 2.7 g
Hematuria (0-4) (SLAC/MRL/LPR mice; week 10): 0
Survival Rate (SLAC/MRL/LPR mice; week 10): 10/10
Body Weight (SLAC/MRL/LPR mice; week 11): 39.9 ± 2.1 g
Hematuria (0-4) (SLAC/MRL/LPR mice; week 11): 0
Survival Rate (SLAC/MRL/LPR mice; week 11): 10/10
Body Weight (SLAC/MRL/LPR mice; week 12): 42.7 ± 2.3 g
Hematuria (0-4) (SLAC/MRL/LPR mice; week 12): 0
Survival Rate (SLAC/MRL/LPR mice; week 12): 10/10
Body Weight (SLAC/MRL/LPR mice; week 13): 44.7 ± 2.4 g
Hematuria (0-4) (SLAC/MRL/LPR mice; week 13): 0
Survival Rate (SLAC/MRL/LPR mice; week 13): 10/10
Body Weight (SLAC/MRL/LPR mice; week 14): 47.1 ± 1.8 g
Hematuria (0-4) (SLAC/MRL/LPR mice; week 14): 0
Survival Rate (SLAC/MRL/LPR mice; week 14): 10/10
Body Weight (SLAC/MRL/LPR mice; week 15): 48.9 ± 2.6 g
Hematuria (0-4) (SLAC/MRL/LPR mice; week 15): 0
Survival Rate (SLAC/MRL/LPR mice; week 15): 10/10
Body Weight (SLAC/MRL/LPR mice; week 16): 49.6 ± 2.1 g
Hematuria (0-4) (SLAC/MRL/LPR mice; week 16): 0
Survival Rate (SLAC/MRL/LPR mice; week 16): 10/10
Body Weight (SLAC/MRL/LPR mice; week 17): 50.2 ± 2.5 g
Hematuria (0-4) (SLAC/MRL/LPR mice; week 17): 0
Survival Rate (SLAC/MRL/LPR mice; week 17): 10/10
Body Weight (SLAC/MRL/LPR mice; week 18): 50.6 ± 2.4 g
Hematuria (0-4) (SLAC/MRL/LPR mice; week 18): 0
Survival Rate (SLAC/MRL/LPR mice; week 18): 10/10
Body Weight (SLAC/MRL/LPR mice; week 19): 50.9 ± 2.3 g
Hematuria (0-4) (SLAC/MRL/LPR mice; week 19): 0
Survival Rate (SLAC/MRL/LPR mice; week 19): 10/10
Body Weight (SLAC/MRL/LPR mice; week 20): 51.1 ± 2.0 g
Hematuria (0-4) (SLAC/MRL/LPR mice; week 20): 0
Survival Rate (SLAC/MRL/LPR mice; week 20): 10/10
Body Weight (SLAC/MRL/LPR mice; week 21): 50.9 ± 2.3 g
Hematuria (0-4) (SLAC/MRL/LPR mice; week 21): 0
Survival Rate (SLAC/MRL/LPR mice; week 21): 10/10
Body Weight (SLAC/MRL/LPR mice; week 22): 50.4 ± 2.2 g
Hematuria (0-4) (SLAC/MRL/LPR mice; week 22): 0
Survival Rate (SLAC/MRL/LPR mice; week 22): 10/10
Body Weight (SLAC/MRL/LPR mice; week 23): 50.9 ± 2.1 g
Hematuria (0-4) (SLAC/MRL/LPR mice; week 23): 0
Survival Rate (SLAC/MRL/LPR mice; week 23): 10/10
Body Weight (SLAC/MRL/LPR mice; week 24): 51.2 ± 2.5 g
Hematuria (0-4) (SLAC/MRL/LPR mice; week 24): 0
Survival Rate (SLAC/MRL/LPR mice; week 24): 10/10
Body Weight (SLAC/MRL/LPR mice; week 25): 50.8 ± 2.2 g
Hematuria (0-4) (SLAC/MRL/LPR mice; week 25): 0
Survival Rate (SLAC/MRL/LPR mice; week 25): 10/10
Body Weight (SLAC/MRL/LPR mice; week 26): 50.7 ± 2.6 g
Hematuria (0-4) (SLAC/MRL/LPR mice; week 26): 0
Survival Rate (SLAC/MRL/LPR mice; week 26): 10/10
Body Weight (SLAC/MRL/LPR mice; week 27): 50.3 ± 2.1 g
Hematuria (0-4) (SLAC/MRL/LPR mice; week 27): 0
Survival Rate (SLAC/MRL/LPR mice; week 27): 10/10
Body Weight (SLAC/MRL/LPR mice; week 28): 50.6 ± 2.0 g
Hematuria (0-4) (SLAC/MRL/LPR mice; week 28): 0
Survival Rate (SLAC/MRL/LPR mice; week 28): 10/10
Body Weight (SLAC/MRL/LPR mice; week 29): 50.1 ± 2.0 g
Hematuria (0-4) (SLAC/MRL/LPR mice; week 29): 0
Survival Rate (SLAC/MRL/LPR mice; week 29): 10/10
Body Weight (SLAC/MRL/LPR mice; week 30): 49.8 ± 2.1 g
Hematuria (0-4) (SLAC/MRL/LPR mice; week 30): 0
Survival Rate (SLAC/MRL/LPR mice; week 30): 10/10
Body Weight (SLAC/MRL/LPR mice; week 31): 50.4 ± 1.9 g
Hematuria (0-4) (SLAC/MRL/LPR mice; week 31): 0
Survival Rate (SLAC/MRL/LPR mice; week 31): 10/10
Body Weight (SLAC/MRL/LPR mice; week 32): 50.8 ± 2.0 g
Hematuria (0-4) (SLAC/MRL/LPR mice; week 32): 0
Survival Rate (SLAC/MRL/LPR mice; week 32): 10/10
Body Weight (SLAC/MRL/LPR mice; week 33): 50.6 ± 2.1 g
Hematuria (0-4) (SLAC/MRL/LPR mice; week 33): 0
Survival Rate (SLAC/MRL/LPR mice; week 33): 10/10
Body Weight (SLAC/MRL/LPR mice; week 34): 50.8 ± 2.3 g
Hematuria (0-4) (SLAC/MRL/LPR mice; week 34): 0
Survival Rate (SLAC/MRL/LPR mice; week 34): 10/10
Body Weight (SLAC/MRL/LPR mice; week 35): 50.3 ± 2.4 g
Hematuria (0-4) (SLAC/MRL/LPR mice; week 35): 0
Survival Rate (SLAC/MRL/LPR mice; week 35): 10/10
Body Weight (SLAC/MRL/LPR mice; week 36): 50.7 ± 2.3 g
Hematuria (0-4) (SLAC/MRL/LPR mice; week 36): 0
Survival Rate (SLAC/MRL/LPR mice; week 36): 10/10
Body Weight (SLAC/MRL/LPR mice; week 37): 50.9 ± 2.0 g
Hematuria (0-4) (SLAC/MRL/LPR mice; week 37): 0
Survival Rate (SLAC/MRL/LPR mice; week 37): 10/10
Body Weight (SLAC/MRL/LPR mice; week 38): 51.1 ± 2.6 g
Hematuria (0-4) (SLAC/MRL/LPR mice; week 38): 0
Survival Rate (SLAC/MRL/LPR mice; week 38): 10/10
Body Weight (SLAC/MRL/LPR mice; week 39): 50.6 ± 2.2 g
Hematuria (0-4) (SLAC/MRL/LPR mice; week 39): 0
Survival Rate (SLAC/MRL/LPR mice; week 39): 10/10
Body Weight (SLAC/MRL/LPR mice; week 40): 50.7 ± 2.0 g
Hematuria (0-4) (SLAC/MRL/LPR mice; week 40): 0
Survival Rate (SLAC/MRL/LPR mice; week 40): 10/10
Body Weight (SLAC/MRL/LPR mice; week 41): 51.2 ± 2.1 g
Hematuria (0-4) (SLAC/MRL/LPR mice; week 41): 0
Survival Rate (SLAC/MRL/LPR mice; week 41): 10/10
Body Weight (SLAC/MRL/LPR mice; week 42): 51.1 ± 2.6 g
Hematuria (0-4) (SLAC/MRL/LPR mice; week 42): 0
Survival Rate (SLAC/MRL/LPR mice; week 42): 10/10
Body Weight (SLAC/MRL/LPR mice; week 43): 50.7 ± 2.2 g
Hematuria (0-4) (SLAC/MRL/LPR mice; week 43): 0
Survival Rate (SLAC/MRL/LPR mice; week 43): 10/10
Body Weight (SLAC/MRL/LPR mice; week 44): 50.3 ± 2.6 g
Hematuria (0-4) (SLAC/MRL/LPR mice; week 44): 0
Survival Rate (SLAC/MRL/LPR mice; week 44): 10/10
Body Weight (SLAC/MRL/LPR mice; week 45): 50.7 ± 2.0 g
Hematuria (0-4) (SLAC/MRL/LPR mice; week 45): 0
Survival Rate (SLAC/MRL/LPR mice; week 45): 10/10
Body Weight (SLAC/MRL/LPR mice; week 46): 50.6 ± 2.3 g
Hematuria (0-4) (SLAC/MRL/LPR mice; week 46): 0
Survival Rate (SLAC/MRL/LPR mice; week 46): 10/10
Body Weight (SLAC/MRL/LPR mice; week 47): 50.1 ± 2.0 g
Hematuria (0-4) (SLAC/MRL/LPR mice; week 47): 0
Survival Rate (SLAC/MRL/LPR mice; week 47): 10/10
Body Weight (SLAC/MRL/LPR mice; week 48): 50.3 ± 2.5 g
Hematuria (0-4) (SLAC/MRL/LPR mice; week 48): 0
Survival Rate (SLAC/MRL/LPR mice; week 48): 10/10
Body Weight (SLAC/MRL/LPR mice; week 49): 50.7 ± 2.4 g
Hematuria (0-4) (SLAC/MRL/LPR mice; week 49): 0
Survival Rate (SLAC/MRL/LPR mice; week 49): 10/10
Body Weight (SLAC/MRL/LPR mice; week 50): 51.2 ± 2.1 g
Hematuria (0-4) (SLAC/MRL/LPR mice; week 50): 0
Survival Rate (SLAC/MRL/LPR mice; week 50): 10/10
antipyretic activity ([1]; 20 mg/kg, oral administration): almost the same antipyretic activity as 100 mg/kg of aspirin
body temperature ([1]; 20 mg/kg, orally, t = 0 min.): 37.6 ± 0.3
body temperature ([1]; 20 mg/kg, orally, t = 90 min.): 37.1 ± 0.4
body temperature ([1]; 20 mg/kg, orally, t = 180 min.): 36.8 ± 0.2
body temperature ([1]; 20 mg/kg, orally, t = 270 min.): 36.5 ± 0.3
body temperature ([1]; 50 mg/kg, orally, t = 0 min.): 37.6 ± 0.3
body temperature ([1]; 50 mg/kg, orally, t = 90 min.): 36.7 ± 0.3
body temperature ([1]; 50 mg/kg, orally, t = 180 min.): 36.5 ± 0.2
body temperature ([1]; 50 mg/kg, orally, t = 270 min.): 36.4 ± 0.3
body temperature ([1]; 100 mg/kg, orally, t = 0 min.): 37.6 ± 0.4
body temperature ([1]; 100 mg/kg, orally, t = 90 min.): 36.6 ± 0.4
body temperature ([1]; 100 mg/kg, orally, t = 180 min.): 36.5 ± 0.3
body temperature ([1]; 100 mg/kg, orally, t = 270 min.): 36.4 ± 0.3
body temperature ([1]; groups H/I, 50 mg/kg, transdermally, t = 0 min.): 37.5 ± 0.3
body temperature ([1]; groups H/I, 50 mg/kg, transdermally, t = 90 min.): 36.5 ± 0.2
body temperature ([1]; groups H/I, 50 mg/kg, transdermally, t = 180 min.): 36.3 ± 0.3
body temperature ([1]; groups H/I, 50 mg/kg, transdermally, t = 270 min.): 36.4 ± 0.2
body temperature ([1]; groups J/K, 20 mg/kg, transdermally, t = 0 min.): 37.5 ± 0.4
body temperature ([1]; groups J/K, 20 mg/kg, transdermally, t = 90 min.): 36.7 ± 0.2
body temperature ([1]; groups J/K, 20 mg/kg, transdermally, t = 180 min.): 36.4 ± 0.2
body temperature ([1]; groups J/K, 20 mg/kg, transdermally, t = 270 min.): 36.4 ± 0.2
body temperature ([1]; groups L/M, 20 mg/kg, transdermally, t = 0 min.): 37.6 ± 0.2
body temperature ([1]; groups L/M, 20 mg/kg, transdermally, t = 90 min.): 36.5 ± 0.4
body temperature ([1]; groups L/M, 20 mg/kg, transdermally, t = 180 min.): 36.4 ± 0.3
body temperature ([1]; groups L/M, 20 mg/kg, transdermally, t = 270 min.): 36.5 ± 0.2
